Experimental data reported in ChEMBL document CHEMBL2176970, “Discovery and optimization of a series of 3-(3-phenyl-3H-imidazo[4,5-b]pyridin-2-yl)pyridin-2-amines: orally bioavailable, selective, and potent ATP-independent Akt inhibitors” (J Med Chem, 2012).
Calls of active or inactive are those of the source. The rule behind the calls is not given here.

Key:
[1] = target: T1, RAC-alpha serine/threonine-protein kinase (Homo sapiens, UniProt P31749); assay: Inhibition of Akt1 in human A2780 cells assessed as phosphorylation of Akt at S473 after 2 hrs by Western Blot analysis; format: cell-based
T1 sequence (P31749 whole entry): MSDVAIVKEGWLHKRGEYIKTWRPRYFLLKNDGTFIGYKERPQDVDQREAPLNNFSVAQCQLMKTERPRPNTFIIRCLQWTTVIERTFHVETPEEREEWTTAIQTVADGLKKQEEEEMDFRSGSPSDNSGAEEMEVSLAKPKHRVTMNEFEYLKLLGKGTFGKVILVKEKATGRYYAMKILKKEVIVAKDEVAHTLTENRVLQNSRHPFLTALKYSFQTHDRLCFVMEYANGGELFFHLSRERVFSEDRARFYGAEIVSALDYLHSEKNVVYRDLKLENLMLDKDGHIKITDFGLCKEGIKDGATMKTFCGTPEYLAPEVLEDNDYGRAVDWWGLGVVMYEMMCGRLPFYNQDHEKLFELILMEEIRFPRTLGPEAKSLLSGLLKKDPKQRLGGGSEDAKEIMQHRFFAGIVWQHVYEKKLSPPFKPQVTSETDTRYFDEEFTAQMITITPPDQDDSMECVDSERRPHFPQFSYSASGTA

[2] = target: T1, RAC-alpha serine/threonine-protein kinase; assay: Inhibition of Akt1 in human AN3CA cells assessed as phosphorylation of Akt at S473 after 2 hrs by Western Blot analysis; format: cell-based, AN3-CA
[3] = target: T1, RAC-alpha serine/threonine-protein kinase; assay: Inhibition of Akt 1 in human A2780 cells assessed as phosphorylation of Akt at T308 after 2 hrs by Western Blot analysis; format: cell-based
[4] = target: T1, RAC-alpha serine/threonine-protein kinase; assay: Inhibition of Akt 1 in human AN3CA cells assessed as phosphorylation of Akt at T308 after 2 hrs by Western Blot analysis; format: cell-based, AN3-CA
[5] = target: T1, RAC-alpha serine/threonine-protein kinase; assay: Inhibition of Akt1 in human A2780 cells assessed as phosphorylation PRAS40 at T246 after 2 hrs by Western Blot analysis; format: cell-based
[6] = target: T1, RAC-alpha serine/threonine-protein kinase; assay: Inhibition of Akt1 in human AN3CA cells assessed as phosphorylation PRAS40 at T246 after 2 hrs by Western Blot analysis; format: cell-based, AN3-CA
A2780 = assay: Antiproliferative activity against human A2780 cells after 72 hrs by MTS assay; format: functional, cell-based; settings: A2780, 72 h
AN3-CA = assay: Antiproliferative activity against human AN3CA cells after 72 hrs by MTS assay; format: functional, cell-based
[7] = target: T2, RAC-beta serine/threonine-protein kinase (Homo sapiens, UniProt P31751); assay: Binding affinity to Akt2 (1 to 481) expressed in Sf9 cells assessed as change in melting temperature at 15 uM
T2 sequence (P31751 whole entry): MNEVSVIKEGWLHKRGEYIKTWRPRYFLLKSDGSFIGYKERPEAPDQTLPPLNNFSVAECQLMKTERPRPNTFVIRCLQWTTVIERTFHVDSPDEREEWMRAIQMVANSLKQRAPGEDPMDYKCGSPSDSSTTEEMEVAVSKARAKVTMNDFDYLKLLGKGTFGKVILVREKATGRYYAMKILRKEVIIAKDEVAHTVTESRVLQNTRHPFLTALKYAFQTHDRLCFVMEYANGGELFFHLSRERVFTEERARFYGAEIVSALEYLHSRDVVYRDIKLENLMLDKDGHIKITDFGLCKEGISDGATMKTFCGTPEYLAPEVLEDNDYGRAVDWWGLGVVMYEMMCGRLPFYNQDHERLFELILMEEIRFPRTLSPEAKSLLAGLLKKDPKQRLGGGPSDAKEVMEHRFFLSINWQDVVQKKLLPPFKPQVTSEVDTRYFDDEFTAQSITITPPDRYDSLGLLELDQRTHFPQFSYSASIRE

[8] = target: T3, RAC-gamma serine/threonine-protein kinase (Homo sapiens, UniProt Q9Y243); assay: Binding affinity to Akt3 (1 to 479) expressed in Sf9 cells assessed as change in melting temperature at 15 uM
T3 sequence (Q9Y243 whole entry): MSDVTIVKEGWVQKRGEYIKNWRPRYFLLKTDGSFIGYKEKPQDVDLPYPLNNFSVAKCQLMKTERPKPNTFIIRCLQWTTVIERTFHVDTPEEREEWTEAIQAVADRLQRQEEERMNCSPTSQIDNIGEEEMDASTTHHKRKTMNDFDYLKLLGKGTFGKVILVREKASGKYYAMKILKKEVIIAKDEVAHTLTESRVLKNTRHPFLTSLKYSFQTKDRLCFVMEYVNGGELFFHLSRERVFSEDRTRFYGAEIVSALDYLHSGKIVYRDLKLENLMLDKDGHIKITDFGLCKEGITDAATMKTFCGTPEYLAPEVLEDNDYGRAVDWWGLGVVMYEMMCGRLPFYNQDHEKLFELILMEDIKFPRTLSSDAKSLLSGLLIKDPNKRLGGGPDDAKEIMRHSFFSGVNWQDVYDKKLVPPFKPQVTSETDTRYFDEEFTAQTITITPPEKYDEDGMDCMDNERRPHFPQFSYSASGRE

[9] = target: T2, RAC-beta serine/threonine-protein kinase; assay: Inhibition of Akt2 (1 to 481) expressed in Sf9 cells using biotin-GRPRTSSFAEG as substrate after 20 mins by Alpha-screen assay
[10] = target: T3, RAC-gamma serine/threonine-protein kinase; assay: Inhibition of Akt3 (1 to 479) expressed in Sf9 cells using biotin-GRPRTSSFAEG as substrate after 20 mins by Alpha-screen assay
Cytochrome P450 1A2 = target: T4, Cytochrome P450 1A2 (Homo sapiens, UniProt P05177); assay: Inhibition of CYP1A2 in human liver microsomes using phenacetin as substrate after 10 mins; format: ADME, Microsome
T4 sequence (P05177 whole entry): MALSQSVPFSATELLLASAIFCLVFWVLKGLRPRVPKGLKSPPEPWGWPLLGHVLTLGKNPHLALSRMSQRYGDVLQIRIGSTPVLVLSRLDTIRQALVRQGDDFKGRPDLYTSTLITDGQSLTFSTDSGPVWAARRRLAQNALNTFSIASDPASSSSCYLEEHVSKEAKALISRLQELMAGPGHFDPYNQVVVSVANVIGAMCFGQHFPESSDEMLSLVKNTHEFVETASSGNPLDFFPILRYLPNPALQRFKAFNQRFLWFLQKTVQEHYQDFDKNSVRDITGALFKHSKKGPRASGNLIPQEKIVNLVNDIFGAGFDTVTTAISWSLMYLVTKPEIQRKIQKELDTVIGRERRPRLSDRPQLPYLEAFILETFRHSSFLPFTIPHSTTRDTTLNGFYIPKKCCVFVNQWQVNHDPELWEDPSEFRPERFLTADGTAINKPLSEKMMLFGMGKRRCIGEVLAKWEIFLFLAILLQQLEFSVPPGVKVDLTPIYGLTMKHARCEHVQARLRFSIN

Cytochrome P450 2C19 = Cytochrome P450 2C19 (Homo sapiens, UniProt P33261); assay: Inhibition of CYP2C19 in human liver microsomes using S-mephenytoin as substrate after 10 mins; format: ADME, Microsome
Cytochrome P450 2C19, sequence (P33261 whole entry): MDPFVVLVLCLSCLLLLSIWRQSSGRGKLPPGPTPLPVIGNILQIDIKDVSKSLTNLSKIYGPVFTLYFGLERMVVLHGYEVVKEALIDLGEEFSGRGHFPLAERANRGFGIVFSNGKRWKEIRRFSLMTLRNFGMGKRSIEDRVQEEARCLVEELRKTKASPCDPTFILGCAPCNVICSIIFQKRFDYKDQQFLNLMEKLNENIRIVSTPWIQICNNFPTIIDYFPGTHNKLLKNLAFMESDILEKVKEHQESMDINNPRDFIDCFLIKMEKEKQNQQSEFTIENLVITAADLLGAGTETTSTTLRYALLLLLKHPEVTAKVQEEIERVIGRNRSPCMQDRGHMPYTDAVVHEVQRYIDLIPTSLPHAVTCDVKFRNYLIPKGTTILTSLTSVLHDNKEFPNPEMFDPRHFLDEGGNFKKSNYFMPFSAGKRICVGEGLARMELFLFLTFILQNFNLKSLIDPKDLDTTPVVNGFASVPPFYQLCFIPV

Cytochrome P450 2C8 = target: T5, Cytochrome P450 2C8 (Homo sapiens, UniProt P10632); assay: Inhibition of CYP2C8 in human liver microsomes using paclitaxel as substrate after 10 mins; format: ADME, Microsome
T5 sequence (P10632 whole entry): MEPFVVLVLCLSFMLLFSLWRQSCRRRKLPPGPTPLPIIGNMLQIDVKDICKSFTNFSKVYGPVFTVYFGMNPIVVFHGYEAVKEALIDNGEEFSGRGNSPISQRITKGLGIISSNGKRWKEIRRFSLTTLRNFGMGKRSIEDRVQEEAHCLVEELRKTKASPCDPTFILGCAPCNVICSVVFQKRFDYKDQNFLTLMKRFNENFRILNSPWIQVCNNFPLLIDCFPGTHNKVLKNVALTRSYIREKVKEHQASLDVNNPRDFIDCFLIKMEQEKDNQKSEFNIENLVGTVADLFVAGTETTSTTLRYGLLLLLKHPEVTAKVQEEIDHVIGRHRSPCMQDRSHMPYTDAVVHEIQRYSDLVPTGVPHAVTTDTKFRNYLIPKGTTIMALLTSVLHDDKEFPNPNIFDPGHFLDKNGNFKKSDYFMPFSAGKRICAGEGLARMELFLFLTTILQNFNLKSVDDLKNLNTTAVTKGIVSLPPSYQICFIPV

Cytochrome P450 2C9 = Cytochrome P450 2C9 (Homo sapiens, UniProt P11712); assay: Inhibition of CYP2C9 in human liver microsomes using tolbutamide as substrate after 10 mins; format: ADME, Microsome
Cytochrome P450 2C9, sequence (P11712 whole entry): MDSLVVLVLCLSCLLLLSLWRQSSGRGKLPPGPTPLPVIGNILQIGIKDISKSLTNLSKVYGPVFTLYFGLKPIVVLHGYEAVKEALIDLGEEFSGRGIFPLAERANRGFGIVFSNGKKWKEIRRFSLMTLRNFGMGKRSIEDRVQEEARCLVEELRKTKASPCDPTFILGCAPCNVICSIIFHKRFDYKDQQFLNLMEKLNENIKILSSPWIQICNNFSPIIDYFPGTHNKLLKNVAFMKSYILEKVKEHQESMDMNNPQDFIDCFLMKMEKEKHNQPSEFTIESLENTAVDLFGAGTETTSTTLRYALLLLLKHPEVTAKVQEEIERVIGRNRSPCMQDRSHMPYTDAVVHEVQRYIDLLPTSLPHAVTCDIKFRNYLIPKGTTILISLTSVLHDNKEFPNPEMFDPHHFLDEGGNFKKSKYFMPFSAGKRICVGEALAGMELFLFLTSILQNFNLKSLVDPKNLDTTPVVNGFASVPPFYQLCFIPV

Cytochrome P450 2D6 = Cytochrome P450 2D6 (Homo sapiens, UniProt P10635); assay: Inhibition of CYP2D6 in human liver microsomes using bufuralol as substrate after 10 mins; format: ADME, Microsome
Cytochrome P450 2D6, sequence (P10635 whole entry): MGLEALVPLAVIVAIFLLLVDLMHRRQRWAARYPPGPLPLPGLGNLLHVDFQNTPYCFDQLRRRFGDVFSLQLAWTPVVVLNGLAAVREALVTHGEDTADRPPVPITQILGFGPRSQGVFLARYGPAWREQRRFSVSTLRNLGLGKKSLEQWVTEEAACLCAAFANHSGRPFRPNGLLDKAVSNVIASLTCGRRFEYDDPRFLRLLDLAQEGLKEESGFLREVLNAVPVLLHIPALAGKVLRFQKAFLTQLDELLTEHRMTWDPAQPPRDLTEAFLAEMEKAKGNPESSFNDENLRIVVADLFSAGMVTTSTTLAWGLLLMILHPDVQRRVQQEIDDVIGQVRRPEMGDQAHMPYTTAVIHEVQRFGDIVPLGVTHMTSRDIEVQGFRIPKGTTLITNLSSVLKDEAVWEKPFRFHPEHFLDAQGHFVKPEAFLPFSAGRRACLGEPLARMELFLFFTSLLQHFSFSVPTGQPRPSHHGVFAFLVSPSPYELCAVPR

Cytochrome P450 3A4 = Cytochrome P450 3A4 (Homo sapiens, UniProt P08684); assay: Inhibition of CYP3A4 in human liver microsomes using midazolam as substrate after 10 mins; format: ADME, Microsome
Cytochrome P450 3A4, sequence (P08684 whole entry): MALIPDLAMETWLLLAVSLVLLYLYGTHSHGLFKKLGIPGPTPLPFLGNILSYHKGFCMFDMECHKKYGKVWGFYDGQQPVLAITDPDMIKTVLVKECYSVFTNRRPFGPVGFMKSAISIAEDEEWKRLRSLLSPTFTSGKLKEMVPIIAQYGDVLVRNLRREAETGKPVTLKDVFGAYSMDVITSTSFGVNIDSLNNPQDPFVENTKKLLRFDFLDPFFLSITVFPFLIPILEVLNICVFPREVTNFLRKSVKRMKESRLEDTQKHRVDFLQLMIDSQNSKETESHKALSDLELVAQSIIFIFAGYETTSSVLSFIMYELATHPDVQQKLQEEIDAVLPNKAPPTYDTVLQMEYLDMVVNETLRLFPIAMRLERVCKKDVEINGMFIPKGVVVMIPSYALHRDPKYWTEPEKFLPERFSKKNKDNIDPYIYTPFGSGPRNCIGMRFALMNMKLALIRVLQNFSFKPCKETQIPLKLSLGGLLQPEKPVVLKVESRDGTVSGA

[11] = Half life in human liver microsomes at 1 uM by LC/MS/MS; format: ADME, Microsome
[12] = Half life in male CD1 mouse liver microsomes at 1 uM by LC/MS/MS; format: ADME, Microsome
[13] = Half life in female CD1 mouse liver microsomes at 1 uM by LC/MS/MS; format: ADME, Microsome
Mus musculus [14] = assay: Inhibition of Akt in human AN3CA cells xenografted NCr mouse assessed as reduction of Akt phosphorylation at S473 in tumor at 250 mg/kg, po after 2 hrs; format: functional; settings: AN3-CA
Mus musculus [15] = assay: Inhibition of Akt in human AN3CA cells xenografted NCr mouse assessed as reduction of Akt phosphorylation at T308 in tumor at 250 mg/kg, po after 2 hrs; format: functional; settings: AN3-CA
Mus musculus [16] = assay: Inhibition of Akt in human AN3CA cells xenografted NCr mouse assessed as reduction of p70S6 phosphorylation at T389 in tumor at 250 mg/kg, po after 2 hrs; format: functional; settings: AN3-CA
Mus musculus [17] = assay: Inhibition of Akt in human AN3CA cells xenografted NCr mouse assessed as reduction of Akt phosphorylation at S473 in tumor at 250 mg/kg, po after 4 hrs; format: functional; settings: AN3-CA
Mus musculus [18] = assay: Inhibition of Akt in human AN3CA cells xenografted NCr mouse assessed as reduction of Akt phosphorylation at T308 in tumor at 250 mg/kg, po after 4 hrs; format: functional; settings: AN3-CA
Mus musculus [19] = assay: Inhibition of Akt in human AN3CA cells xenografted NCr mouse assessed as reduction of p70S6 phosphorylation at T389 in tumor at 250 mg/kg, po after 4 hrs; format: functional; settings: AN3-CA
[20] = Plasma concentration in CD1 mouse at 250 mg/kg, po after 2 hrs by LC/MS/MS analysis; format: ADME, organism-based; design: dose 250 mg/kg, route oral
[21] = Plasma concentration in CD1 mouse at 250 mg/kg, po after 4 hrs by LC/MS/MS analysis; format: ADME, organism-based; design: dose 250 mg/kg, route oral
[22] = Drug level in human AN3CA cells xenografted NCr mouse tumor at 250 mg/kg, po after 2 hrs; format: ADME, organism-based, Neoplasm, AN3-CA; design: dose 250 mg/kg, route oral; settings: read-out: Drug uptake
[23] = Drug level in human AN3CA cells xenografted NCr mouse tumor at 250 mg/kg, po after 4 hrs; format: ADME, organism-based, Neoplasm, AN3-CA; design: dose 250 mg/kg, route oral; settings: read-out: Drug uptake
[24] = target: T1, RAC-alpha serine/threonine-protein kinase; assay: Inhibition of Akt1 (1 to 480) expressed in Sf9 cells in presence of A674563
[25] = target: T1, RAC-alpha serine/threonine-protein kinase; assay: Binding affinity to Akt1 (1 to 480) expressed in Sf9 cells by SPR analysis
[26] = target: T1, RAC-alpha serine/threonine-protein kinase; settings: Sf9
[27] = target: T1, RAC-alpha serine/threonine-protein kinase; assay: Inhibition of Akt1 (1 to 480) expressed in Sf9 cells using biotin-GRPRTSSFAEG as substrate after 20 mins by Alpha-screen assay
[28] = Oral bioavailability in NCr mouse at 100 mg/kg; format: ADME, organism-based; settings: in vivo
Mus musculus [29] = assay: Inhibition of Akt in human AN3CA cells xenografted NCr mouse assessed as reduction of Akt phosphorylation at S473 in tumor at 100 mg/kg, po after 2 hrs; format: functional; settings: AN3-CA
Mus musculus [30] = assay: Inhibition of Akt in human AN3CA cells xenografted NCr mouse assessed as reduction of Akt phosphorylation at T308 in tumor at 100 mg/kg, po after 2 hrs; format: functional; settings: AN3-CA
Mus musculus [31] = assay: Inhibition of Akt in human AN3CA cells xenografted NCr mouse assessed as reduction of p70S6 phosphorylation at T389 in tumor at 100 mg/kg, po after 2 hrs; format: functional; settings: AN3-CA
[32] = Plasma concentration in CD1 mouse at 100 mg/kg, po after 2 hrs by LC/MS/MS analysis; format: ADME, organism-based; design: dose 100 mg/kg, route oral
[33] = Drug level in human AN3CA cells xenografted NCr mouse tumor at 100 mg/kg, po after 2 hrs; format: ADME, organism-based, Neoplasm, AN3-CA; design: dose 100 mg/kg, route oral; settings: read-out: Drug uptake

Structure (SMILES) | IC50 [1] [nM] | IC50 [2] [nM] | IC50 [3] [nM] | IC50 [4] [nM] | IC50 [5] [nM] | IC50 [6] [nM] | IC50 (A2780) [nM] | IC50 (AN3-CA) [nM] | ΔTm [7] [°C] | ΔTm [8] [°C] | IC50 [9] [nM] | IC50 [10] [nM] | IC50 (Cytochrome P450 1A2) [µM] | IC50 (Cytochrome P450 2C19) [nM] | IC50 (Cytochrome P450 2C8) [nM] | IC50 (Cytochrome P450 2C9) [nM] | IC50 (Cytochrome P450 2D6) [µM] | IC50 (Cytochrome P450 3A4) [µM] | half-life at 1 µM [11] [min] | half-life at 1 µM [12] [min] | other results
CC(=O)Nc1cccc(-c2ccc3nc(-c4cccnc4N)n(-c4ccc(CNC(=O)c5cccc(F)c5)cc4)c3n2)c1 | 27 | 44 | 32 | 45 | 250 | 220 | 2200 | 2000 | 7.7 | 2.9 | 18 | 170 | > 10 | 1000 | 1000 | 1000 | > 10 | > 10 | > 30 | > 30 | half-life at 1 µM [13]: > 30 min; inhibition in vivo at 250 mg/kg (Mus musculus [14]): 62%; inhibition in vivo at 250 mg/kg (Mus musculus [15]): 57%; inhibition in vivo at 250 mg/kg (Mus musculus [16]): 90%; inhibition in vivo at 250 mg/kg (Mus musculus [17]): 51%; inhibition in vivo at 250 mg/kg (Mus musculus [18]): 67%; inhibition in vivo at 250 mg/kg (Mus musculus [19]): 86%; concentration at 2 h [20]: 2000 nM; concentration at 4 h [21]: 1200 nM; concentration at 2 h [22]: 1200 nM; concentration at 4 h [23]: 600 nM; inhibition [24]: Active; Activity [25]: Active; ΔTm [26]: 13 °C
Nc1ncccc1-c1nc2cc(-c3cccnc3)cnc2n1-c1ccc(CNC(=O)c2ccccc2)cc1 | 100 | 80 | 62 | 91 | 950 | 1500 | > 100000 | > 100000 | 4.8 | 1.6 | 30 | 660 | > 10 | > 10000 | > 10000 | > 10000 | > 10 | > 10 | > 30 | > 60 | IC50 [27]: 8 nM; half-life at 1 µM [13]: > 60 min; bioavailability [28]: 46%; inhibition in vivo at 100 mg/kg (Mus musculus [29]): 82%; inhibition in vivo at 100 mg/kg (Mus musculus [30]): 25%; inhibition in vivo at 100 mg/kg (Mus musculus [31]): 76%; concentration at 2 h [32]: 14.1 µM; concentration at 2 h [33]: 8.4 µM; ΔTm [26]: 9.2 °C
